From PubChem BioAssay (NCI)
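A five-concentration, 48-hour dose response in 96-well plates underlies each endpoint, interpolated linearly between surrounding concentrations. At the GI50, growth is halved. TGI is the concentration that stops growth completely.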

Tests used:
Assay in all cases: DTP human tumour cell line panel, 48 h
LOX IMVI melanoma = test system: LOX IMVI melanoma
786-0 renal = test system: 786-0 renal
A498 renal = test system: A498 renal
MDA-MB-435 = test system: MDA-MB-435
KM12 colon = test system: KM12 colon
SF-295 CNS = test system: SF-295 CNS
SF-539 CNS = test system: SF-539 CNS
K-562 leukemia = test system: K-562 leukemia
M14 melanoma = test system: M14 melanoma
UACC-62 melanoma = test system: UACC-62 melanoma
SF-268 CNS = test system: SF-268 CNS
SW-620 colon = test system: SW-620 colon
PC-3 prostate = test system: PC-3 prostate
T-47D breast = test system: T-47D breast
U251 CNS = test system: U251 CNS
CCRF-CEM leukemia = test system: CCRF-CEM leukemia
DU-145 prostate = test system: DU-145 prostate
SNB-75 CNS = test system: SNB-75 CNS
SNB-19 CNS = test system: SNB-19 CNS
NCI-H23 lung = test system: NCI-H23 lung
SK-OV-3 ovarian = test system: SK-OV-3 ovarian
IGROV1 ovarian = test system: IGROV1 ovarian
NCI-H522 lung = test system: NCI-H522 lung
EKVX NSCLC = test system: EKVX NSCLC
NCI-H226 lung = test system: NCI-H226 lung
MDA-MB-231 breast = test system: MDA-MB-231 breast
UACC-257 melanoma = test system: UACC-257 melanoma
SN12C renal = test system: SN12C renal
OVCAR-5 ovarian = test system: OVCAR-5 ovarian
HCC-2998 colon = test system: HCC-2998 colon
CAKI-1 renal = test system: CAKI-1 renal
HS 578T breast = test system: HS 578T breast
OVCAR-8 ovarian = test system: OVCAR-8 ovarian
SK-MEL-2 melanoma = test system: SK-MEL-2 melanoma
HOP-92 NSCLC = test system: HOP-92 NSCLC
HL-60(TB) leukemia = test system: HL-60(TB) leukemia
NCI-H460 lung = test system: NCI-H460 lung
MALME-3M melanoma = test system: MALME-3M melanoma
COLO 205 colon = test system: COLO 205 colon
RXF 393 renal = test system: RXF 393 renal
A549 NSCLC = test system: A549 NSCLC
SR leukemia = test system: SR leukemia
RPMI-8226 leukemia = test system: RPMI-8226 leukemia
SK-MEL-28 melanoma = test system: SK-MEL-28 melanoma
OVCAR-4 ovarian = test system: OVCAR-4 ovarian
OVCAR-3 ovarian = test system: OVCAR-3 ovarian
HT29 colon = test system: HT29 colon
SK-MEL-5 melanoma = test system: SK-MEL-5 melanoma
MCF7 breast = test system: MCF7 breast
ACHN renal = test system: ACHN renal
MOLT-4 leukemia = test system: MOLT-4 leukemia
BT-549 breast = test system: BT-549 breast
NCI/ADR-RES ovarian = test system: NCI/ADR-RES ovarian
UO-31 renal = test system: UO-31 renal
HCT-116 colon = test system: HCT-116 colon
HOP-62 NSCLC = test system: HOP-62 NSCLC
HCT-15 colon = test system: HCT-15 colon

`CC(C)(c1ccccc1)c1cc(O)c(C(C)(C)c2ccccc2)cc1O` was tested, and the GI50 (LOX IMVI melanoma) was 1.54 µM, the TGI (LOX IMVI melanoma) was 3.82 µM and the GI50 (786-0 renal) was 2.67 µM. For the same molecule, the TGI (786-0 renal) was 9.38 µM, the GI50 (A498 renal) was 2.16 µM and the TGI (A498 renal) was 10.1 µM. It also gave a GI50 (MDA-MB-435) of 1.43 µM, a TGI (MDA-MB-435) of 8.85 µM and a GI50 (KM12 colon) of 1.96 µM. The TGI (KM12 colon) was 10.8 µM, the GI50 (SF-295 CNS) was 1.33 µM and the TGI (SF-295 CNS) was 3.23 µM. It also gave a GI50 (SF-539 CNS) of 2.73 µM, a TGI (SF-539 CNS) of 9.59 µM and a GI50 (K-562 leukemia) of 1.85 µM. The TGI (K-562 leukemia) was 12.2 µM, the GI50 (M14 melanoma) was 1.82 µM and the TGI (M14 melanoma) was 4.99 µM. The GI50 (UACC-62 melanoma) was 1.71 µM, the TGI (UACC-62 melanoma) was 4.93 µM and the GI50 (SF-268 CNS) was 2.99 µM. For the same molecule, the TGI (SF-268 CNS) was 12.8 µM, the GI50 (SW-620 colon) was 2.77 µM and the TGI (SW-620 colon) was 14.6 µM. The GI50 (PC-3 prostate) was 1.96 µM, the TGI (PC-3 prostate) was 10.9 µM and the GI50 (T-47D breast) was 1.81 µM. The TGI (T-47D breast) was 12.7 µM, the GI50 (U251 CNS) was 2.14 µM and the TGI (U251 CNS) was 9.97 µM. It also gave a GI50 (CCRF-CEM leukemia) of 3 µM, a TGI (CCRF-CEM leukemia) of 13.6 µM and a GI50 (DU-145 prostate) of 3.83 µM. For the same molecule, the TGI (DU-145 prostate) was 16.2 µM, the GI50 (SNB-75 CNS) was 1.51 µM and the TGI (SNB-75 CNS) was 11.5 µM. It also gave a GI50 (SNB-19 CNS) of 2.91 µM, a TGI (SNB-19 CNS) of 12.1 µM and a GI50 (NCI-H23 lung) of 2.27 µM. It also gave a TGI (NCI-H23 lung) of 16.2 µM, a GI50 (SK-OV-3 ovarian) of 3.55 µM and a TGI (SK-OV-3 ovarian) of 14.5 µM. The GI50 (IGROV1 ovarian) was 2.7 µM, the TGI (IGROV1 ovarian) was 13.3 µM and the GI50 (NCI-H522 lung) was 3.67 µM. The TGI (NCI-H522 lung) was 16.7 µM, the GI50 (EKVX NSCLC) was 1.94 µM and the TGI (EKVX NSCLC) was 12.5 µM. For the same molecule, the GI50 (NCI-H226 lung) was 1.09 µM, the TGI (NCI-H226 lung) was 16 µM and the GI50 (MDA-MB-231 breast) was 1.43 µM. It also gave a TGI (MDA-MB-231 breast) of 6.28 µM, a GI50 (UACC-257 melanoma) of 2.1 µM and a TGI (UACC-257 melanoma) of 10.7 µM. For the same molecule, the GI50 (SN12C renal) was 2.46 µM, the TGI (SN12C renal) was 11.5 µM and the GI50 (OVCAR-5 ovarian) was 2.63 µM. It also gave a TGI (OVCAR-5 ovarian) of 8.58 µM, a GI50 (HCC-2998 colon) of 2.98 µM and a TGI (HCC-2998 colon) of 12.8 µM. For the same molecule, the GI50 (CAKI-1 renal) was 1.71 µM, the TGI (CAKI-1 renal) was 11.4 µM and the GI50 (HS 578T breast) was 3.19 µM. For the same molecule, the TGI (HS 578T breast) was 19.6 µM, the GI50 (OVCAR-8 ovarian) was 3.75 µM and the TGI (OVCAR-8 ovarian) was 20.9 µM. For the same molecule, the GI50 (SK-MEL-2 melanoma) was 2.96 µM, the TGI (SK-MEL-2 melanoma) was 13.9 µM and the GI50 (HOP-92 NSCLC) was 1.75 µM. It also gave a TGI (HOP-92 NSCLC) of 6.66 µM, a GI50 (HL-60(TB) leukemia) of 1.84 µM and a TGI (HL-60(TB) leukemia) of 5.53 µM. It also gave a GI50 (NCI-H460 lung) of 2.23 µM, a TGI (NCI-H460 lung) of 7.53 µM and a GI50 (MALME-3M melanoma) of 2.32 µM. The TGI (MALME-3M melanoma) was 12.3 µM, the GI50 (COLO 205 colon) was 1.66 µM and the TGI (COLO 205 colon) was 3.4 µM. It also gave a GI50 (RXF 393 renal) of 1.83 µM, a TGI (RXF 393 renal) of 6.85 µM and a GI50 (A549 NSCLC) of 2.77 µM. For the same molecule, the TGI (A549 NSCLC) was 13.4 µM, the GI50 (SR leukemia) was 3 µM and the TGI (SR leukemia) was 9.86 µM. It also gave a GI50 (RPMI-8226 leukemia) of 1.37 µM, a TGI (RPMI-8226 leukemia) of 14.3 µM and a GI50 (SK-MEL-28 melanoma) of 2.81 µM. It also gave a TGI (SK-MEL-28 melanoma) of 14 µM, a GI50 (OVCAR-4 ovarian) of 1.26 µM and a TGI (OVCAR-4 ovarian) of 9.92 µM. For the same molecule, the GI50 (OVCAR-3 ovarian) was 2.53 µM, the TGI (OVCAR-3 ovarian) was 8 µM and the GI50 (HT29 colon) was 1.64 µM. It also gave a TGI (HT29 colon) of 8.91 µM, a GI50 (SK-MEL-5 melanoma) of 1.02 µM and a TGI (SK-MEL-5 melanoma) of 2.65 µM. For the same molecule, the GI50 (MCF7 breast) was 2.1 µM, the TGI (MCF7 breast) was 11.2 µM and the GI50 (ACHN renal) was 2.7 µM. The TGI (ACHN renal) was 12.2 µM, the GI50 (MOLT-4 leukemia) was 1.72 µM and the TGI (MOLT-4 leukemia) was 7.82 µM. It also gave a GI50 (BT-549 breast) of 1.57 µM, a TGI (BT-549 breast) of 5.31 µM and a GI50 (NCI/ADR-RES ovarian) of 2.7 µM. It also gave a TGI (NCI/ADR-RES ovarian) of 12.1 µM, a GI50 (UO-31 renal) of 2.1 µM and a TGI (UO-31 renal) of 11.3 µM. It also gave a GI50 (HCT-116 colon) of 1.35 µM, a TGI (HCT-116 colon) of 3.36 µM and a GI50 (HOP-62 NSCLC) of 3.06 µM. For the same molecule, the TGI (HOP-62 NSCLC) was 13.4 µM, the GI50 (HCT-15 colon) was 2.35 µM and the TGI (HCT-15 colon) was 10.1 µM.
